This is an account of results in publication PMC3691235, “Discovery of a Novel Dual Fungal CYP51/Human 5-Lipoxygenase Inhibitor: Implications for Anti-Fungal Therapy” (PLoS ONE, 2013).

Read-outs that look alike come from different tables or passages of the source.

One assay concerns the target T1, human COX-2 (Homo sapiens, UniProt P35354).
T1 construct: purchased Cayman chemical 60122
T1 sequence (P35354 18-604): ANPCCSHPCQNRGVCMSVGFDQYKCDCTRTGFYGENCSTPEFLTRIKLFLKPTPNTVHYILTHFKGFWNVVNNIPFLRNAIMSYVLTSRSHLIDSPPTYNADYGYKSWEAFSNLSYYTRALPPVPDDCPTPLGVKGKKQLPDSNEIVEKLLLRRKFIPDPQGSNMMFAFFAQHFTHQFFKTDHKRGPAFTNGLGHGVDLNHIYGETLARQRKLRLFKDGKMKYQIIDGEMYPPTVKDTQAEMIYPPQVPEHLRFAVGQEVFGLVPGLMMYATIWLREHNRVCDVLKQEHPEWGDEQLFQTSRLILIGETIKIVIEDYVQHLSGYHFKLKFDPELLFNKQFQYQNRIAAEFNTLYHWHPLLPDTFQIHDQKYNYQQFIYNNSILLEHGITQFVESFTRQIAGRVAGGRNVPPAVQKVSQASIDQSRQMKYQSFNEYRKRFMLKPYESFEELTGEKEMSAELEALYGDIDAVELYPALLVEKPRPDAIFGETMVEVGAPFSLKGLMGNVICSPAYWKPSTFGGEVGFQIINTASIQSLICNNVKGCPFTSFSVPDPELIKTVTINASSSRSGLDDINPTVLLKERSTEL
Description: Cyclooxygenase assay (oxygen electrode), COX-2. As to conditions: 100 µM AA, pH 8.0, 37°C, oxygen consumption. The assay is classed as biochemical. As for the experimental part:
Ovine COX-1 (Cat. No. 60100) and human COX-2 (Cat. No. 60122) were purchased from Cayman chemical. Approximately 2 µg of either COX-1 or COX-2 were added to buffer containing 100 µM AA, 0.1 M Tris-HCl buffer (pH 8.0), 5 mM EDTA, 2 mM phenol and 1 µM hematin at 37°C. Data was collected using a Hansatech DW1 oxygen electrode chamber, as described before. Inhibitor or vehicle were mixed with the respective COX in buffer within the electrode cell, the reaction was initiated by the addition of AA, followed by monitoring of rate of oxygen consumption. Ibuprofen, aspirin and indomethacin, and the carrier solvent, DMSO, were used as positive and negative controls, respectively.

In another assay the target is T2, 5-LOX (Homo sapiens, UniProt P09917).
T2 construct: made in house
T2 sequence (P09917 1-674): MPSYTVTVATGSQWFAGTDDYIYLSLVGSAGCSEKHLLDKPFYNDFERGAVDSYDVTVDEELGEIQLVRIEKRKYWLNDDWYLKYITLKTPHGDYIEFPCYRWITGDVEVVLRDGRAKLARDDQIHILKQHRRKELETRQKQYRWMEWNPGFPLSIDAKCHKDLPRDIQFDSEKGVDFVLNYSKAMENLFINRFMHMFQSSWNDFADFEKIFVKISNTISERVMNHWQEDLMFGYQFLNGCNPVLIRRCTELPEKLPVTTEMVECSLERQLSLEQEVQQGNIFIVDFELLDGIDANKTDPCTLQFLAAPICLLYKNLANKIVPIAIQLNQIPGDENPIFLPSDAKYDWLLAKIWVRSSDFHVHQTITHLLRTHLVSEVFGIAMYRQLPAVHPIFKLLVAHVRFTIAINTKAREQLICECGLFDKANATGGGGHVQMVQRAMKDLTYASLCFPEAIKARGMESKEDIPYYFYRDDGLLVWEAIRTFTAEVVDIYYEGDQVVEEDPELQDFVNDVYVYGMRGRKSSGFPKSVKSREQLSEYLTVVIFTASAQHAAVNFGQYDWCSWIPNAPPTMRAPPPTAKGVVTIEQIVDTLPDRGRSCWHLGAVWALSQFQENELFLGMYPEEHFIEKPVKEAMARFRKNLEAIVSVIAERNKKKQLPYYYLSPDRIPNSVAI
Description: Pseudoperoxidase activity assay. The class given is biochemical. As to conditions: 10 µM inhibitor, 10 µM 13-HPODE, positive = loss of greater than 40% of product absorption at 234 nm. As for the experimental part: The reductive properties of the inhibitors were determined by monitoring the pseudoperoxidase activity of lipoxygenase in the presence of the inhibitor and 13-(S)-hydroperoxyoctadecadienoic acid (13-HPODE). Activity is monitored by direct measurement of the product degradation following the decrease of absorbance at 234 nm using a Perkin-Elmer Lambda 40 UV/Vis spectrometer (50 mM Sodium Phosphate (pH 7.4), 0.3 mM CaCl2, 0.1 mM EDTA, 0.01% Triton X100, 10 µM 13-HPODE). All reactions were performed in 2 mL of buffer and constantly stirred with a rotating stir bar (23°C). Reaction was initiated by addition of 10 µM inhibitor (a 1 to 1 ratio to 13-HPODE), and a positive result for activity reflected a loss of greater than 40% of product absorption at 234 nm.

The next assay has as its target T3, CaCYP51 (Candida albicans, UniProt P10613).
T3 construct: made in house; host or cells: E. coli
Put plainly: CYP51 reconstitution assay, CaCYP51. The class given is biochemical. As for the experimental part: Azole antifungal agents were added in 5 µL DMSO followed by incubation for 5 minutes at 37°C prior to assay initiation with 4 mM β-NADPHNa4, with shaking for a further 10 minutes at 37°C. Sterol metabolites were recovered by extraction with ethyl acetate followed by derivatization with N,O-bis(trimethylsilyl)trifluoroacetamide and […] prior to analysis by gas chromatography mass spectrometry.

For assay [1], the target named is T4, Human leukocyte 5-lipoxygenase (Homo sapiens, UniProt P09917).
T4 construct: made in house
T4 sequence (P09917 1-674): T2 sequence (P09917 1-674)
As to conditions: [13], cited from earlier work.

T3 sequence (P10613 whole entry): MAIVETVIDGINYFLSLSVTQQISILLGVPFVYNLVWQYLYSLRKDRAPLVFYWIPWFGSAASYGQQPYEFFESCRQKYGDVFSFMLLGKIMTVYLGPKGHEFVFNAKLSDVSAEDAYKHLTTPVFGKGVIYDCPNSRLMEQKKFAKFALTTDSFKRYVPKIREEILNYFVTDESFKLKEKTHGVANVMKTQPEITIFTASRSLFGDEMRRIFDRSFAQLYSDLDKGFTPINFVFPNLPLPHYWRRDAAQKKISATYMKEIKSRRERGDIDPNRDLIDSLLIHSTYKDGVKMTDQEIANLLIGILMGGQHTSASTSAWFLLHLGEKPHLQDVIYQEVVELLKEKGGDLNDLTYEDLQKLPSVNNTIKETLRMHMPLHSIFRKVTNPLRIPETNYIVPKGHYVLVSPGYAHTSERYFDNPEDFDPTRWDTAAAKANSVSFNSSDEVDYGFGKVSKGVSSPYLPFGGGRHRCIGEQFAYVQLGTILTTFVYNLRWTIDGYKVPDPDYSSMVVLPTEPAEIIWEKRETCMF

As to `CC(C)(C)OC(=O)N1CCN(c2ccc(NCc3ccc(-c4ccc(C#N)cc4)o3)cc2)CC1` [Compound 1], the concentration for half-maximal inhibition (IC50) at human COX-2 is above 150 µM. In addition, the “Reductive activity (pseudoperoxidase activity)” value (“Reductive activity” below) on 5-LOX was “Yes”.

Turning to `CC(=O)N1CCN(c2ccc(NCc3ccc(-c4cccc(Cl)c4)o3)cc2)CC1` [Compound 13], at human COX-2, the IC50 is above 150 µM.

Consider `CC(=O)N1CCN(c2ccc(NCC3COC(Cn4ccnc4)(c4ccc(Cl)cc4Cl)O3)cc2)CC1` (stereo not drawn) [ketaminazole (16), ketaminazole], for which the IC50 against human COX-2 is above 150 µM; at CaCYP51 (1 µM CaCYP51, 50 µM lanosterol, read-out: CaCYP51 IC50), around 0.9 µM. Moreover, at 5-LOX, the “Reductive activity” value is “reductive inhibitor and Yes”. Also, the CYP51 activity retained at CaCYP51 (CaCYP51, at 4 µM compound) is on record as around 15%.

At human COX-2, `Cc1cc(C2CCCCC2)n(O)c(=O)c1` [ciclopirox, reference compound] registered an IC50 above 150 µM.

For the compound `CC(=O)N1CCN(c2ccc(OCC3COC(Cn4ccnc4)(c4ccc(Cl)cc4Cl)O3)cc2)CC1` (stereo not drawn) [ketoconazole, reference compound], the 50% inhibitory concentration (IC50) against human COX-2 was above 150 µM; against CaCYP51, around 0.5 µM; in assay [1] (read-out: 5-LOX IC50, ref [12]), above 50 µM. At 5-LOX, the “Reductive activity” value is reported as “No”.

For `CC[C@](O)(c1nnc(NCc2ccc3c(-c4ccc(F)cc4)cc(=O)oc3c2)o1)C(F)(F)F` [setileuton, reference compound], the “Reductive activity” value is “non-reductive” at 5-LOX and “No” at 5-LOX (listed as Setileuton). In addition, the IC50 in assay [1] (ref [2], read-out: 5-LOX IC50, literature value) was 0.045 ± 0.01 µM.
